pEC50: −log10 of the molar value. Where two headings read alike, the source gives them in different places. Where a SMILES comes first, the peptide text is derived from it. [ ]: non-standard residue; d: D form. The star is where a group is joined. Dolaproine = CO[C@@H]([C@@H]1CCCN1)[C@@H](C)C(=O)O; Dil = CC[C@H](C)[C@H](NC)[C@@H](CC(=O)O)OC; NMe2Val = CC(C)[C@@H](C(=O)*)N(C)C; NMeV = CN[C@H](C(=O)O)C(C)C; X3 = C[Si](C)(O)CCCC(=O)*; X2 = C[Si](C)(O)CCCN*
How the values were obtained:
KB cells [1] = experiment: CellTiter-Glo cell viability, 72 hour incubation protocol; format: cell-based; details: Homo sapiens
Protocol: 72 hour incubation protocol: The CellTiter-Glo (CTG) assay (Promega) was used to measure cell viability in various different cell lines included KB cells obtained from American Type Culture Collection (ATCC). […] For this assay, 5,000 cells per well were plated in a 96-well tissue culture treated plate in RPMI 1640 medium (ThermoFisher Scientific) containing 5% FBS. Cells were allowed to settle at 37° C. in a humidified CO2 incubator for 24 hours. Cells were dosed with compound or vehicle control in duplicate for 72 hours at 37° C. in a humidified CO2 incubator. After the 72 hour dosing period, the CTG assay was performed according to the manufacturer's specifications. Luminescence was read using a Victor X5 (PerkinElmer) plate reader. Data was analyzed using Prism software and was normalized to the vehicle control.

KB cells [2] = experiment: Cell titer-glo cell viability, washout protocol; format: cell-based; details: percent cell kill at 48 h
Protocol: Washout protocol: KB cells in culture were seeded in white clear bottom 96-well tissue culture plate at a density of 5,000 cells per well in a folate free RPMI media with 10% FBS a day prior to compound addition. Cells were counted visually with a hemocytometer and diluted accordingly to obtain the desired density. Cells were allowed to incubate for 24 hours in a humidified CO2 atmosphere in an incubator at 37° C. The spent media was aspirated and replenished with 100 μL of fresh media containing a 3-fold serial dilution of compound with concentrations ranging from 0.3 to 2000 nM and with a final DMSO concentration of 0.1%. Blank wells without compound were also treated with media containing 0.1% DMSO. Cells were incubated for 2 h and washed 4 times with fresh media. […] […] 100 μL of constituted Cell titer-glo reagent was added to each well and luminescence was recorded with a VICTOR plate reader according to manufacturers' protocol.

[3] = 72 h incubation protocol, silanol based payloads, read-out: EC50

CC[C@]1(O)C[C@H]2CN(CCc3c([nH]c4ccccc34)[C@@](C(=O)OC)(c3cc4c(cc3OC)N(C)[C@H]3[C@@](O)(C(=O)NCCC[Si](C)(C)O)[C@H](O)[C@]5(CC)C=CCN6CC[C@]43[C@@H]65)C2)C1 (stereo in doubt) [Example 1, Methyl (3R,5S,7R,9S)-5-ethyl-9-((3aR,3a1R,4R,5S,5aR,10bR)-3a-ethyl-4,5-dihydroxy-5-((3-(hydroxydimethylsilyl)propyl)carbamoyl)-8-methoxy-6-methyl-3a,3a1,4,5,5a,6,11,12-octahydro-1H-indolizino[8,1-cd]carbazol-9-yl)-5-hydroxy-1,4,5,6,7,8,9,10-octahydro-2H-3,7-methano[1]azacycloundecino[5,4-b]indole-9-carboxylate]
pEC50 (KB cells [1]; [3]): ~8.22

CCCC(=O)OCN(C(=O)[C@@H](NC(=O)[C@H]1CCCCN1C)[C@@H](C)CC)[C@H](C[C@@H](OC(C)=O)c1nc(C(=O)N[C@@H](Cc2ccc(O)cc2)C[C@H](C)C(=O)NCCC[Si](C)(C)O)cs1)C(C)C (stereo in doubt) [Example 13]
pEC50 (KB cells [1]; 72 h): > 10.00

CC[C@H](C)[C@@H]([C@@H](CC(=O)N1CCC[C@H]1[C@H](OC)[C@@H](C)C(=O)N[C@@H](Cc1ccccc1)C(=O)NCCC[Si](C)(C)O)OC)N(C)C(=O)[C@@H](NC(=O)[C@H](C(C)C)N(C)C)C(C)C [Example 5, (S)—N-((3R,4S,5S)-1-((S)-2-((3R,4R,7S)-7-benzyl-13-hydroxy-4,13-dimethyl-5,8-dioxo-2-oxa-6,9-diaza-13-silatetradecan-3-yl)pyrrolidin-1-yl)-3-methoxy-5-methyl-1-oxoheptan-4-yl)-2-((S)-2-(dimethylamino)-3-methylbutanamido)-N,3-dimethylbutanamide] (NMe2Val-V[Dil][Dolaproine]F-X2)
pEC50 (KB cells [1]; 72 h): ~9.30

CC[C@H](C)[C@@H]([C@@H](CC(=O)N1CCC[C@H]1[C@H](OC)[C@@H](C)C(=O)N[C@@H](Cc1ccccc1)C(=O)O)OC)N(C)C(=O)[C@@H](NC(=O)[C@H](C(C)C)N(C)C(=O)CCC[Si](C)(C)O)C(C)C [Example 6, ((2R,3R)-3-((S)-1-((3R,4S,5S)-4-((S)-2-((S)-2-(4-(hydroxydimethylsilyl)-N-methylbutanamido)-3-methylbutanamido)-N,3-dimethylbutanamido)-3-methoxy-5-methylheptanoyl)pyrrolidin-2-yl)-3-methoxy-2-methylpropanoyl)-L-phenylalanine] (X3-[NMeV]V[Dil][Dolaproine]F-OH)
pEC50 (KB cells [1]; 72 h): ~6.30

CC[C@@]1(O)C(=O)OCc2c1cc1n(c2=O)Cc2c-1nc1ccccc1c2CC[Si](C)(C)O [Example 7, (S)-4-Ethyl-4-hydroxy-11-(2-(hydroxydimethylsilyl)ethyl)-1,12-dihydro-14H-pyrano[3′,4′:6,7]indolizino[1,2-b]quinoline-3,14(4H)-dione]
pEC50 (KB cells [1]; [3]): ~7.25

CC[C@]1(O)C[C@@H]2CN(CCc3c([nH]c4ccccc34)[C@@](C(=O)OC)(c3cc4c(cc3OC)N(C)[C@H]3[C@@](O)(C(=O)NCCC[Si](C)(C)O[Si](C)(C)CSc5ncc(Cn6cc(COCCOCCOCCOCCOCCOCCNC(=O)CC[C@H](NC(=O)c7ccc(NCc8cnc9nc(N)[nH]c(=O)c9n8)cc7)C(=O)O)nn6)cn5)[C@H](O)[C@]5(CC)C=CCN6CC[C@]43[C@@H]65)C2)C1 [Example 24]
% Kill (48 h) (KB cells [2]): 84%

CC[C@]1(O)CC2CN(CCc3c([nH]c4ccccc34)[C@@](C(=O)OC)(c3cc4c(cc3OC)N(C)[C@H]3[C@@](O)(C(=O)NCCC[Si](C)(C)O[Si](C)(C)CSc5ncc(COCCOCCOCCn6cc(COCC(COCc7cn(CCOCCOCCOCc8cnc(SC[Si](C)(C)O[Si](C)(C)CCCNC(=O)[C@@]9(O)[C@H](O)[C@]%10(CC)C=CCN%11CC[C@@]%12(c%13cc([C@@]%14(C(=O)OC)CC%15CN(CCc%16c%14[nH]c%14ccccc%16%14)C[C@](O)(CC)C%15)c(OC)cc%13N(C)[C@@H]9%12)[C@@H]%11%10)nc8)nn7)(COCc7cn(CCOCCOCCOCc8cnc(SC[Si](C)(C)O[Si](C)(C)CCCNC(=O)[C@@]9(O)[C@H](O)[C@]%10(CC)C=CCN%11CC[C@@]%12(c%13cc([C@@]%14(C(=O)OC)CC%15CN(CCc%16c%14[nH]c%14ccccc%16%14)C[C@](O)(CC)C%15)c(OC)cc%13N(C)[C@@H]9%12)[C@@H]%11%10)nc8)nn7)NC(=O)CCOCCOCCOCCOCCOCCOCCNC(=O)CC[C@H](NC(=O)c7ccc(NCc8cnc9nc(N)[nH]c(=O)c9n8)cc7)C(=O)O)nn6)cn5)[C@H](O)[C@]5(CC)C=CCN6CC[C@]43[C@@H]65)C2)C1 (some centres unmarked) [Example 27]
% Kill (48 h) (KB cells [2]): 80%

CC[C@]1(O)C[C@@H]2CN(CCc3c([nH]c4ccccc34)[C@@](C(=O)OC)(c3cc4c(cc3OC)N(C)[C@H]3[C@@](O)(C(=O)NCCC[Si](C)(C)O[Si](C)(C)CSc5ncc(Cn6cc(C[C@H](NC(=O)[C@H](CC(=O)O)NC(=O)[C@H](CC(=O)O)NC(=O)[C@H](CCCNC(=N)N)NC(=O)[C@H](CC(=O)O)NC(=O)CC[C@H](NC(=O)c7ccc(NCc8cnc9nc(N)[nH]c(=O)c9n8)cc7)C(=O)O)C(=O)O)nn6)cn5)[C@H](O)[C@]5(CC)C=CCN6CC[C@]43[C@@H]65)C2)C1 [Example 28]
% Kill (48 h) (KB cells [2]): 86%

Reference: patent US10293053B2, “Silanol based therapeutic payloads” (BlinkBio, Inc., priority 2016, dated 2019)
